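Step 1: Grow cells in 96-well plates. Step 2: Expose to compound for 48 hours at 5 concentrations. Step 3: Interpolate endpoints linearly; if unreached, use highest concentration. TGI: total growth inhibition.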 *1 amine or outer side, *2 acyl side, *3 side chain or, on linkers, in order; H or OH if unused. Where a SMILES comes first, the peptide text is derived from it. [ ]: non-standard residue; d: D form. ξ: configuration not given here. X22 = O=C(C(CC(O)CO)O[*:1])[*:2]; Ile(3ξ) = CCC(C)[C@H](N)C(=O)O; NMeV = CN[C@H](C(=O)O)C(C)C; NMeA = CN[C@@H](C)C(=O)O; βAla = NCCC(=O)O
What was measured:
Assay in all cases: inhibition of tumour cell growth, NCI panel, 48 h
[1] = system: 786-0 renal
[2] = system: A549 NSCLC
[3] = system: ACHN renal
[4] = system: CCRF-CEM leukemia
[5] = system: COLO 205 colon
[6] = system: DLD-1 colon
[7] = system: DMS 114 small cell lung
[8] = system: DMS 273 small cell lung
[9] = system: EKVX NSCLC
[10] = system: HCC-2998 colon
[11] = system: HCT-15 colon
[12] = system: HL-60(TB) leukemia
[13] = system: HOP-18 NSCLC
[14] = system: HT29 colon
[15] = system: IGROV1 ovarian
[16] = system: K-562 leukemia
[17] = system: KM12 colon
[18] = system: LOX IMVI melanoma
[19] = system: LXFL 529 NSCLC
[20] = system: M14 melanoma
[21] = system: M19-MEL melanoma
[22] = system: MOLT-4 leukemia
[23] = system: NCI-H226 lung
[24] = system: NCI-H23 lung
[25] = system: NCI-H460 lung
[26] = system: OVCAR-3 ovarian
[27] = system: OVCAR-4 ovarian
[28] = system: OVCAR-5 ovarian
[29] = system: OVCAR-8 ovarian
[30] = system: RPMI-8226 leukemia
[31] = system: RXF 393 renal
[32] = system: RXF-631 renal
[33] = system: SF-268 CNS
[34] = system: SF-295 CNS
[35] = system: SF-539 CNS
[36] = system: SK-MEL-28 melanoma
[37] = system: SK-MEL-5 melanoma
[38] = system: SK-OV-3 ovarian
[39] = system: SN12C renal
[40] = system: SNB-19 CNS
[41] = system: SNB-75 CNS
[42] = system: SNB-78 CNS
[43] = system: SR leukemia
[44] = system: SW-620 colon
[45] = system: TK-10 renal
[46] = system: U251 CNS
[47] = system: UACC-62 melanoma
[48] = system: UO-31 renal
[49] = system: XF 498 CNS
[50] = system: A498 renal
[51] = system: CAKI-1 renal
[52] = system: HCT-116 colon
[53] = system: HOP-62 NSCLC
[54] = system: HOP-92 NSCLC
[55] = system: KM20L2 colon
[56] = system: MALME-3M melanoma
[57] = system: NCI-H522 lung
[58] = system: SK-MEL-2 melanoma
[59] = system: UACC-257 melanoma

Measured: TGI

NC(=O)c1ncn(Cc2ccccc2)c1CNC(N)=S
not listed: [50] | [51] | [52] | [53] | [54] | [55] | [56] | [57] | [58] | [59]
> 100 µM: all other assays above

CC(=O)NC(CCCNC(=O)OCc1ccccc1)C(=O)O (stereo not drawn)
not listed: [12] | [13] | [43]
> 100 µM: all other assays above

CCC(C)[C@@H]1NC(=O)[C@@H]2CCCN2C(=O)C(CC(O)CO)OC(=O)CCNC(=O)[C@H](C)N(C)C(=O)[C@H](C(C)C)N(C)C1=O (stereo partly drawn) (cyclo([Ile(3ξ)][NMeV][NMeA][βAla][X22]P))
not listed: [3] | [7] | [9] | [10] | [13] | [57]
> 100 µM: all other assays above

Reference: PubChem BioAssay (NCI)
